How the values were obtained:
Assay in all cases: relative viability (nuclei count vs DMSO), 5 days (fraction); higher = more cells survive
[1] = compound: CC1=C(C(=NN1)C)CC2=C(C3=C(S2)N(C(=O)N(C3=O)C)CC(C)C)C(=O)N4C[C@@H](CO4)O + NC(=O)Nc1cc(-c2cccc(F)c2)sc1C(=O)N[C@H]1CCCNC1 [AZD7762] (partner 0.2 µM)
In short: (§1)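 Dosing by pin tool came one day after lung cancer cell lines were seeded in 1536-well plates, using either one drug or a fixed anchor-drug dose plus five library-drug doses (not always all listed) in √10 steps. After 5 days, nuclei were counted on 4× images. Relative viability is treated-well nuclei count divided by vehicle-well nuclei count, and values are medians of duplicate plates.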

IDH-C35 + Phenformin = compound: Cc1ccccc1C(C(=O)NC1CCCCC1)N(C(=O)Cn1ccnc1C)c1cccc(F)c1 [IDH-C35] + N=C(N)NC(=N)NCCc1ccccc1 [Phenformin] (partner 250 µM)
In short: as §1

[2] = compound: CC1=C(C(=NN1)C)CC2=C(C3=C(S2)N(C(=O)N(C3=O)C)CC(C)C)C(=O)N4C[C@@H](CO4)O + Cc1cc(Nc2cc(N3CCN(C)CC3)nc(Sc3ccc(NC(=O)C4CC4)cc3)n2)n[nH]1 [Tozasertib] (partner 0.1 µM)
In short: as §1

[3] = compound: CC1=C(C(=NN1)C)CC2=C(C3=C(S2)N(C(=O)N(C3=O)C)CC(C)C)C(=O)N4C[C@@H](CO4)O + Nc1nc2[nH]cc(CCc3ccc(C(=O)N[C@@H](CCC(=O)O)C(=O)O)cc3)c2c(=O)[nH]1 [Pemetrexed] (partner 0.2 µM)
In short: as §1

Cell Line	relative viability ([1]; first compound 0.0025 µM)	relative viability ([1]; first compound 0.007906 µM)	relative viability ([1]; first compound 0.025 µM)	relative viability ([1]; first compound 0.07906 µM)	relative viability ([1]; first compound 0.25 µM)	relative viability (IDH-C35 + Phenformin; first compound 0.08 µM)	relative viability (IDH-C35 + Phenformin; first compound 0.253 µM)	relative viability (IDH-C35 + Phenformin; first compound 0.8 µM)	relative viability (IDH-C35 + Phenformin; first compound 2.53 µM)	relative viability (IDH-C35 + Phenformin; first compound 8 µM)	relative viability ([2]; first compound 0.0025 µM)	relative viability ([2]; first compound 0.007906 µM)	relative viability ([2]; first compound 0.025 µM)	relative viability ([2]; first compound 0.07906 µM)	relative viability ([2]; first compound 0.25 µM)	relative viability ([3]; first compound 0.0025 µM)	relative viability ([3]; first compound 0.007906 µM)	relative viability ([3]; first compound 0.025 µM)	relative viability ([3]; first compound 0.07906 µM)	relative viability ([3]; first compound 0.25 µM)
LK-2	0.304	0.252	0.298	0.129	0.134	0.564	0.474	0.476	0.27	0.623	0.19	0.224	0.175	0.198	0.182	0.307	0.347	0.245	0.3	0.257
LOU-NH91	0.817	0.817	0.75	0.863	0.742	0.78	0.784	0.685	0.752	0.497	0.723	0.674	0.709	0.792	0.838	0.404	0.362	0.402	0.366	0.365
LU99A	0.333	0.379	0.326	0.311	0.337	1.04	0.941	0.919	0.776	0.858	0.24	0.285	0.279	0.274	0.283	0.18	0.175	0.159	0.211	0.179
LXF-289	1.06	1.13	1.07	1.2	1.22	0.543	0.507	0.524	0.508	0.517	0.205	0.213	0.18	0.186	0.22	0.88	0.811	0.751	0.922	0.975
NCI-H23	0.23	0.208	0.298	0.271	0.31	0.824	0.746	0.788	0.756	0.705	0.784	0.42	0.412	0.334	0.388	0.825	0.635	0.689	0.697	0.697
NCI-H322M	0.655	0.57	0.71	0.573	0.662	0.761	0.798	0.772	0.749	0.743	0.532	0.485	0.454	0.495	0.461	0.526	0.61	0.645	0.629	0.578
NCI-H358	0.571	0.623	0.431	0.643	0.594	0.366	0.33	0.337	0.388	0.328	0.12	0.0943	0.0965	0.11	0.112	0.172	0.185	0.159	0.157	0.181
NCI-H441	1.44	1.23	1.12	1.3	1.16	1.07	0.866	0.72	1.01	0.807	0.657	0.647	0.575	0.664	0.623	0.253	0.299	0.263	0.244	0.263
NCI-H460	0.726	0.65	0.562	0.551	0.596	0.547	0.527	0.502	0.488	0.531	0.493	0.337	0.494	0.479	0.54	0.0637	0.0564	0.0621	0.0635	0.0733
NCI-H522	0.836	1.05	0.546	0.565	0.624	0.643	0.65	0.764	0.629	0.659	0.516	0.537	0.545	0.419	0.418	1.14	1.37	0.98	0.54	0.643
NCI-H596	1.29	1.25	1.06	0.976	1.01	0.781	0.819	0.705		0.786	0.976	1.07	1.04	0.94	0.889	0.481	0.544	0.484	0.481	0.488
NCI-H647	0.515	0.418	0.366	0.653	0.45	0.425	0.446	0.626	0.55	0.491	0.2	0.265	0.269	0.189	0.322	0.194	0.177	0.173	0.199	0.195
NCI-H650	1.03	0.961	0.893	0.936	0.913	0.453	0.465	0.505		0.421	0.77	0.747	0.702	0.692	0.739	0.983	0.989	0.775	0.949	0.957
NCI-H838	0.908	0.859	0.884	0.835	0.896	0.729	0.599	0.502	0.659	0.543	0.268	0.25	0.212	0.22	0.242	0.261	0.229	0.236	0.243	0.224
NCI-H1355	0.688	0.842	0.713	0.65	0.816	0.52	0.438	0.424	0.466	0.395	0.527	0.437	0.529	0.566	0.623	1.09	1.08	1.04	0.847	0.927
NCI-H1395	0.416	0.4	0.4	0.356	0.389	0.45	0.477	0.498	0.396	0.44	0.757	0.681	0.581	0.592	0.599	0.925	0.791	0.827	0.796	0.718

Source: the supplement of paper PMC10307832
